From US20230159445A1, “STAT INHIBITORY COMPOUNDS AND COMPOSITIONS” (JANPIX LIMITED, priority 2020, published 2023)

What was measured:
[1] = test system: MV4-11 cells; experiment: MV4-11 Cell Cytotoxicity Assay (CellTiter-Blue, 72 h); format: cell-based, human; details: Homo sapiens, MV4-11; MV-4-11 cells
Method in brief: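 Viability read-out: CellTiter-Blue, 1 h, fluorescence 560/590 nm. Preceded by 72 h exposure (37° C, 5% CO2) to twofold dilution series from 50 μM, triplicate, 0.5% DMSO vehicle, applied 24 h after plating.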

[2] = test system: normal human fibroblast (NHF) cells; experiment: NHF Cell Cytotoxicity Assay (CellTiter-Blue, 72 h), off-target effects; format: cell-based; details: Homo sapiens, Fibroblast; pooled NHF cells
Method in brief: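 Normal human fibroblasts (1×10^4/well, 10% FBS medium) were treated after 24 h with inhibitor at 0.097656-50 μM for 72 h at 37° C. Viability was read by CellTiter-Blue fluorescence (560/590 nm), normalized to DMSO control, and IC50 obtained from a variable-slope log(inhibitor)-response fit of four replicates.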

[3] = test system: glutathione (GSH); experiment: Reactivity Profiling with Glutathione (GSH), half-life by HPLC; details: 5 mM glutathione (GSH) in IMDM with 10% FBS

Compound	half-life at 25 μM [3] [h]	IC50 [1] [nM]	IC50 [2] [nM]
O=C(O)c1ccc(N(Cc2cc(C3CC3)cc(N3CCCC3)c2)C(=O)CN(Cc2cnccc2C(F)(F)F)S(=O)(=O)c2c(F)c(F)c(F)c(F)c2F)c(OC2CCCC2)c1 [Compound 1209, 3-(cyclopentyloxy)-4-(N-(3-cyclopropyl-5-(pyrrolidin-1-yl)benzyl)-2-(N-((4-(trifluoromethyl)pyridin-3-yl)methyl)-(2,3,4,5,6-pentafluoro-phenyl)sulfonamido)acetamido)benzoic acid]	9.23 to 1670	0.01 to 316	10000 to 20000
CN(C)c1cc(C(=O)O)ccc1N(Cc1cc(C2CC2)cc(C2CC2)c1)C(=O)CN(Cc1cnccc1C(F)(F)F)S(=O)(=O)c1c(F)c(F)c(F)c(F)c1F [Compound 1210, 4-(N-(3,5-dicyclopropylbenzyl)-2-(N-((4-(trifluoromethyl)pyridin-3-yl)methyl)-(2,3,4,5,6-pentafluoro-phenyl)sulfonamido)acetamido)-3-(dimethylamino) benzoic acid]	0.00167 to 2.37	0.01 to 316	1 to 10000
CC(C)Oc1cc(CN(C(=O)CN(Cc2ccccc2C(F)(F)F)S(=O)(=O)c2c(F)c(F)c(F)c(F)c2F)c2ccc(C(=O)O)cc2OC2CC2)cc(C2CC2)c1 [Compound 1213, 3-cyclopropoxy-4-(N-(3-cyclopropyl-5-isopropoxybenzyl)-2-(N-(2-(trifluoromethyl)benzyl)-(2,3,4,5,6-pentafluoro-phenyl)sulfonamido)acetamido)benzoic acid]	2.37 to 4.12	0.01 to 316	10000 to 20000
O=C(O)c1ccc(N(Cc2cc(C3CC3)cc(C3CC3)c2)C(=O)CN(Cc2ncc(F)cc2Cl)S(=O)(=O)c2c(F)c(F)c(F)c(F)c2F)c(OC2CC2)c1 [Compound 1214, 4-(2-(N-((3-chloro-5-fluoropyridin-2-yl)methyl)-(2,3,4,5,6-pentafluorophenyl)sulfon-amido)-N-(3,5-dicyclopropylbenzyl)acetamido)-3-cyclopropoxybenzoic acid]	4.12 to 9.23	0.01 to 316	1 to 10000
CN(C)c1cc(C(=O)O)ccc1N(Cc1cc(C2CC2)cc(C2CC2)c1)C(=O)CN(Cc1ccccc1C(F)(F)F)S(=O)(=O)c1c(F)c(F)c(F)c(F)c1F [Compound 1215, 4-(N-(3,5-dicyclopropylbenzyl)-2-(N-(2-(trifluoromethyl)benzyl)-(2,3,4,5,6-pentafluoro-phenyl)sulfonamido)acetamido)-3-(dimethylamino) benzoic acid]	4.12 to 9.23	0.01 to 316	20000 to 30000
Cc1cc(C(=O)O)ccc1N(Cc1cc(C2CC2)cc(C2CC2)c1)C(=O)CN(Cc1cnccc1C(F)(F)F)S(=O)(=O)c1c(F)c(F)c(F)c(F)c1F [Compound 1216, 4-(N-(3,5-dicyclopropylbenzyl)-2-(N-((4-(trifluoromethyl)pyridin-3-yl)methyl)-(2,3,4,5,6-pentafluoro-phenyl)sulfonamido)acetamido)-3-methylbenzoic acid]	0.00167 to 2.37	0.01 to 316	1 to 10000
Cc1cc(C(=O)O)ccc1N(Cc1cc(C2CC2)cc(C2CC2)c1)C(=O)CN(Cc1ccccc1C(F)(F)F)S(=O)(=O)c1c(F)c(F)c(F)c(F)c1F [Compound 1217, 4-(N-(3,5-dicyclopropylbenzyl)-2-(N-(2-(trifluoromethyl)benzyl)-(2,3,4,5,6-pentafluoro-phenyl)sulfonamido)acetamido)-3-methylbenzoic acid]	4.12 to 9.23	0.01 to 316	20000 to 30000
Cc1cc(C(=O)O)ccc1N(Cc1cc(C2CC2)cc(C2CC2)c1)C(=O)CN(Cc1c(F)cc(F)cc1F)S(=O)(=O)c1c(F)c(F)c(F)c(F)c1F [Compound 1218, 4-(N-(3,5-dicyclopropylbenzyl)-2-(N-(2,4,6-trifluorobenzyl)-(2,3,4,5,6-pentafluoro-phenyl)sulfonamido)acetamido)-3-methylbenzoic acid]	0.00167 to 2.37	0.01 to 316	1 to 10000
O=C(O)c1ccc(N(Cc2cc(C3CC3)cc(C(F)(F)F)c2)C(=O)CN(Cc2ccccc2C(F)(F)F)S(=O)(=O)c2c(F)c(F)c(F)c(F)c2F)c(OC2CC2)c1 [Compound 1221, 3-cyclopropoxy-4-(N-(3-cyclopropyl-5-(trifluoromethyl)benzyl)-2-(N-(2-(trifluoromethyl)benzyl)-(2,3,4,5,6-pentafluoro-phenyl)sulfonamido)acetamido)benzoic acid]	9.23 to 1670	316 to 1000	20000 to 30000
O=C(O)c1ccc(N(Cc2cc(C3CC3)cc(C(F)(F)F)c2)C(=O)CN(Cc2ccc(F)cc2Cl)S(=O)(=O)c2c(F)c(F)c(F)c(F)c2F)c(OC2CC2)c1 [Compound 1222, 4-(2-(N-(2-chloro-4-fluorobenzyl)-(2,3,4,5,6-pentafluorophenyl)sulfon-amido)-N-(3-cyclopropyl-5-(trifluoromethyl)benzyl)acetamido)-3-cyclopropoxybenzoic acid]	4.12 to 9.23	0.01 to 316	10000 to 20000
CCOc1cc(C(=O)O)ccc1N(Cc1cc(C2CC2)cc(C(C)(C)C)c1)C(=O)CN(Cc1ccc(F)cc1Cl)S(=O)(=O)c1c(F)c(F)c(F)c(F)c1F [Compound 1227, 4-(N-(3-(tert-butyl)-5-cyclopropylbenzyl)-2-(N-(2-chloro-4-fluorobenzyl)-(2,3,4,5,6-pentafluorophenyl)sulfon-amido)acetamido)-3-ethoxybenzoic acid]	4.12 to 9.23	0.01 to 316	10000 to 20000
CC(C)Oc1cc(C(=O)O)ccc1N(Cc1cc(C2CC2)cc(C(C)(C)C)c1)C(=O)CN(Cc1ccc(F)cc1Cl)S(=O)(=O)c1c(F)c(F)c(F)c(F)c1F [Compound 1228, 4-(N-(3-(tert-butyl)-5-cyclopropylbenzyl)-2-(N-(2-chloro-4-fluorobenzyl)-(2,3,4,5,6-pentafluorophenyl)sulfon-amido)acetamido)-3-isopropoxybenzoic acid]	9.23 to 1670	0.01 to 316	20000 to 30000
CC(C)Oc1cc(CN(C(=O)CN(Cc2ccc(F)cc2Cl)S(=O)(=O)c2c(F)c(F)c(F)c(F)c2F)c2ccc(C(=O)O)cc2OC2CC2)cc(C2CC2)c1 [Compound 1232, 4-(2-(N-(2-chloro-4-fluorobenzyl)-(2,3,4,5,6-pentafluorophenyl)sulfon-amido)-N-(3-cyclopropyl-5-isopropoxybenzyl)acetamido)-3-cyclopropoxybenzoic acid]	4.12 to 9.23	0.01 to 316	10000 to 20000

Now from value to molecule, other results behind:

half-life at 25 μM [3] [h]	Compound	IC50 [1] [nM]	IC50 [2] [nM]
9.23 to 1670	O=C(O)c1ccc(N(Cc2cc(C3CC3)cc(C3CC3)c2)C(=O)CN(Cc2ccc(F)cc2Cl)S(=O)(=O)c2c(F)c(F)c(F)c(F)c2F)c(OC2CCCC2)c1 [Compound 1208, 4-(2-(N-(2-chloro-4-fluorobenzyl)-(2,3,4,5,6-pentafluorophenyl)sulfon-amido)-N-(3,5-dicyclopropylbenzyl)acetamido)-3-(cyclopentyloxy) benzoic acid]	0.01 to 316	10000 to 20000
4.12 to 9.23	CN(C)c1cc(C(=O)O)ccc1N(Cc1cc(C2CC2)cc(C2CC2)c1)C(=O)CN(Cc1ccc(F)cc1Cl)S(=O)(=O)c1c(F)c(F)c(F)c(F)c1F [Compound 1211, 4-(2-(N-(2-chloro-4-fluorobenzyl)-(2,3,4,5,6-pentafluorophenyl)sulfon-amido)-N-(3,5-dicyclopropylbenzyl)acetamido)-3-(dimethylamino) benzoic acid]	316 to 1000	10000 to 20000
2.37 to 4.12	Cc1cc(C(=O)O)ccc1N(Cc1cc(C2CC2)cc(C2CC2)c1)C(=O)CN(Cc1ccc(F)cc1Cl)S(=O)(=O)c1c(F)c(F)c(F)c(F)c1F [Compound 1219, 4-(2-(N-(2-chloro-4-fluorobenzyl)-(2,3,4,5,6-pentafluorophenyl)sulfon-amido)-N-(3,5-dicyclopropylbenzyl)acetamido)-3-methylbenzoic acid]	0.01 to 316	1 to 10000
2.37 to 4.12	O=C(O)c1ccc(N(Cc2cc(C3CC3)cc(C3CC3)c2)C(=O)CN(Cc2ccc(F)cc2Cl)S(=O)(=O)c2c(F)c(F)c(F)c(F)c2F)c(OC2CCOC2)c1 (stereo not drawn) [Compound 1220, 4-(2-(N-(2-chloro-4-fluorobenzyl)-(2,3,4,5,6-pentafluorophenyl)sulfon-amido)-N-(3,5-dicyclopropylbenzyl)acetamido)-3-((tetrahydrofuran-3-yl)oxy)benzoic acid]	0.01 to 316	1 to 10000
2.37 to 4.12	CC(C)(C)c1cc(CN(C(=O)CN(Cc2ccc(F)cc2Cl)S(=O)(=O)c2c(F)c(F)c(F)c(F)c2F)c2ccc(C(=O)O)cc2OC2CCOC2)cc(C2CC2)c1 (stereo not drawn) [Compound 1226, 4-(N-(3-(tert-butyl)-5-cyclopropylbenzyl)-2-(N-(2-chloro-4-fluorobenzyl)-(2,3,4,5,6-pentafluorophenyl)sulfon-amido)acetamido)-3-((tetrahydrofuran-3-yl)oxy)benzoic acid]	0.01 to 316	1 to 10000
4.12 to 9.23	O=C(O)c1ccc(N(Cc2cc(C3CC3)cc(C3CC3)c2)C(=O)CN(Cc2ccc(F)cc2Cl)S(=O)(=O)c2c(F)c(F)c(F)c(F)c2F)c(OC(F)(F)F)c1 [Compound 1231, 4-(2-(N-(2-chloro-4-fluorobenzyl)-(2,3,4,5,6-pentafluorophenyl)sulfon-amido)-N-(3,5-dicyclopropylbenzyl)acetamido)-3-(trifluoromethoxy) benzoic acid]	0.01 to 316	10000 to 20000
